In general, IC50 refers to the midpoint of a concentration-inhibition curve. For orientation: fraction unbound means free concentration divided by total concentration. Lower therefore signals extensive binding.

This is an account of results in paper PMC7238241, “Lack of Correlation between In Vitro and In Vivo Studies on the Inhibitory Effects of (‒)-Sophoranone on CYP2C9 Is Attributable to Low Oral Absorption and Extensive Plasma Protein Binding of (‒)-Sophoranone” (Pharmaceutics, 2020).

For one series, the target named is T1, CYP2C9 (Homo sapiens, UniProt P11712).
T1 construct: tissue Corning Life Sciences; host or cells: pooled human liver microsomes, 150 donors
In words: Reversible CYP2C9 inhibition, cocktail assay (tolbutamide 4-hydroxylase) in human liver microsomes. The conditions noted are these: human liver microsomes 0.1 mg/mL, tolbutamide probe, n = 3. Type of series: biochemical. Here is the method:
(§1) The inhibitory effects of SPN on CYP1A2, CYP2A6, CYP2B6, CYP2C8, CYP2C9, CYP2C19, CYP2D6, CYP2E1, and CYP3A4 were evaluated in pooled human liver microsomes through the use of specific CYP probe substrates (cocktail assay), as previously described with a slight modification. Concentrations of each CYP probe in Table 1 were used close to their reported Km values.
Briefly, a 90-µL incubation mixture, including pooled human liver microsomes (final concentration 0.1 mg/mL), 50 mM phosphate buffer (pH 7.4), each CYP-probe substrate cocktail set, and SPN (0–50 μM), was pre-incubated for 5 min at 37 °C. SPN was dissolved in methanol and spiked into the incubation mixture to a final concentration of 0.5% methanol. […]
(§2) The IC50 values were calculated via nonlinear least-squares regression analysis from logarithmic plots of inhibitor concentration versus percentage of activity remaining after inhibition, using SigmaPlot (ver. 14.0; Systat Software Inc, Chicago, IL, USA). The Ki values were determined from the equations for a single substrate single inhibitor model and the software available in the SigmaPlot Enzyme Kinetics module. Competitive, non-competitive, uncompetitive, or mixed inhibition models were evaluated and ranked according to the best fit based on Akaike Information Criterion (AIC) values. […]
In general terms: Liver microsomes are vesicles of endoplasmic reticulum, rich in cytochrome P450 enzymes.

The next series concerns the target T2, CYP2A6 (Homo sapiens, UniProt P11509).
T2 construct: tissue Corning Life Sciences; host or cells: pooled human liver microsomes, 150 donors
T2 sequence (P11509 1-494): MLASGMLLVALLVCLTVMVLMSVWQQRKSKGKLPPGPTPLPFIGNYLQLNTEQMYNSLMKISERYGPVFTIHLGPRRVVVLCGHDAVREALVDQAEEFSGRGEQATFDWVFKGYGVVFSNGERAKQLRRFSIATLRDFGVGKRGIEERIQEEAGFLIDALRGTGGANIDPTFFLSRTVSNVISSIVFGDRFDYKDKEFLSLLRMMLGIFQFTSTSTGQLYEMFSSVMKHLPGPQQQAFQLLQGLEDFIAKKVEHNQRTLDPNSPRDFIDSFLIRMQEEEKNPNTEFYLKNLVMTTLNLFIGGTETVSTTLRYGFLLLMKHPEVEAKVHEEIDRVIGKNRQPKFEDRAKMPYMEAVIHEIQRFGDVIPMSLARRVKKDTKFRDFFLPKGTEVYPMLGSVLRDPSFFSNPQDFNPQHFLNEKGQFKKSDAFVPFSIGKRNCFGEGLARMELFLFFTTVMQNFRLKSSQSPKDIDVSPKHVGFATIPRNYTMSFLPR
In words: Reversible CYP2A6 inhibition, cocktail assay (coumarin 7-hydroxylase) in human liver microsomes. Type of series: biochemical. Here is the method: as §1
Briefly, a 90-µL incubation mixture, including pooled human liver microsomes (final concentration 0.1 mg/mL), 50 mM phosphate buffer (pH 7.4), each CYP-probe substrate cocktail set, and SPN (0–50 μM), was pre-incubated for 5 min at 37 °C. SPN was dissolved in methanol and spiked into the incubation mixture to a final concentration of 0.5% methanol. All P450-selective substrates (except coumarin due to solubility) were dissolved in methanol and serially diluted with methanol to the required concentrations, and the organic solvent was subsequently evaporated under a gentle stream of N2 gas to minimize the effects of organic solvents on CYP activities. On the other hand, coumarin dissolved in 50 mM phosphate buffer (pH 7.4) was directly added into the mixed tube. The reaction was initiated by adding 10-µL aliquot of NADPH-generating system (1.3 mM NADP^+, 3.3 mM glucose 6-phosphate, 3.3 mM MgCl2, and 0.4 unit/mL glucose-6-phosphate dehydrogenase) before 15 min incubation at 37 °C in a shaking water bath. […]
as §2

Series [1] in a line: Effects of SPN on the pharmacokinetics of diclofenac in rats. The conditions noted are these: rats.
Description: The carotid arteries of each rat were cannulated with a polyethylene tube (Clay Adams, Franklin Lakes, NJ, USA) for blood sampling. Each rat was individually housed in a rat metabolic cage and allowed to recover from anesthesia for 4–5 h prior to the start of the experiment. […] SPN was suspended in dimethylsulfoxide:PEG400:distilled water (5:60:35, v/v/v) and administered by oral gavage at a dose of 75 mg/kg in a volume of 5 mL/kg. […] The blood samples were immediately centrifuged at 13,000× g for 5 min at 4 °C. The plasma samples were divided into two Eppendorf tubes by 50 μL and stored at −80 °C until LC-MS/MS analysis.
Briefly, 50 μL aliquots of plasma were extracted with 300 μL aliquots of acetonitrile containing chlorpropamide (internal standard), followed by LC-MS/MS (Shimadzu Corporation). Chromatographic separation was performed on a Phenomenex Luna C18 column (100 × 2.00 mm; 3.0 μm). The isocratic mobile phase consisted of 0.1% formic acid in distilled water (A) and 0.1% formic acid in acetonitrile (B) (45:55, v/v), with a flow rate of 0.3 mL/min. […] The data acquisition was computed using LabSolutions LCMS Ver.5.6 (Shimadzu Corporation).
Pharmacokinetic parameters were calculated by a non-compartmental analysis using WinNonlin Professional software (version 5.2, Pharsight Corp., Mountain View, CA, USA) that used the total area under the plasma concentration–time curve from time zero to infinity (AUC∞) or the last measured time (AUCt). The logarithmic trapezoidal rule was used during the declining plasma level phase and the linear trapezoidal rule was used for the rising plasma-level phase. The peak plasma concentration (Cmax) and time to reach Cmax (Tmax) were read directly from the experimental data. Statistically significant differences were recognized at p < 0.05.
Series [2] is described as follows: Unbound fraction in human liver microsomes (rapid equilibrium dialysis). Format: in vitro ADME. The conditions noted are these: microsomal protein 0.1 mg/mL, n = 3. The protocol: The human liver microsomal incubation mixtures (final concentration 0.1 mg/mL) without NADPH generating system were used to determine the unbound fraction of SPN. Other procedures were similar to those of plasma protein binding assay.

For series [3], the system named is CYP1A2, CYP2A6, CYP2B6, CYP2C8, CYP2C9, CYP2C19, CYP2D6, CYP2E1, and CYP3A4. In words: Time-dependent inactivation (IC50 shift) of the nine CYP isoforms in human liver microsomes. The conditions noted are these: 30 min pre-incubation with human liver microsomes in the presence of NADPH. Type of series: biochemical. Here is the method: Pooled human liver microsomes (1 mg/mL) were incubated with SPN (0−50 µM) for 30 min at 37 °C in the absence or presence of an NADPH-generating system (i.e., the “inactivation incubation”). After inactivation incubation, aliquots (10 μL) were transferred into fresh incubation tubes (final volume 100 μL) containing an NADPH-generating system and each P450-selective substrate cocktail set. The reaction mixtures were incubated for 15 min at 37 °C in a shaking water bath. After incubation, the reactions were stopped by adding 200 µL of ice-cold acetonitrile containing 2 µM chlorpropamide, as an internal standard. The incubation mixtures were centrifuged (16,000× g, 15 min) and 5 μL of the supernatant was injected into the LC-MS/MS system. All incubations were performed in triplicate, and the data are shown as the mean ± standard deviation.

Several values for one entry are separate records, joined by “and”; a condition that tells them apart may be missing. Equal entries are not always repeated.

T1 sequence (P11712 whole entry): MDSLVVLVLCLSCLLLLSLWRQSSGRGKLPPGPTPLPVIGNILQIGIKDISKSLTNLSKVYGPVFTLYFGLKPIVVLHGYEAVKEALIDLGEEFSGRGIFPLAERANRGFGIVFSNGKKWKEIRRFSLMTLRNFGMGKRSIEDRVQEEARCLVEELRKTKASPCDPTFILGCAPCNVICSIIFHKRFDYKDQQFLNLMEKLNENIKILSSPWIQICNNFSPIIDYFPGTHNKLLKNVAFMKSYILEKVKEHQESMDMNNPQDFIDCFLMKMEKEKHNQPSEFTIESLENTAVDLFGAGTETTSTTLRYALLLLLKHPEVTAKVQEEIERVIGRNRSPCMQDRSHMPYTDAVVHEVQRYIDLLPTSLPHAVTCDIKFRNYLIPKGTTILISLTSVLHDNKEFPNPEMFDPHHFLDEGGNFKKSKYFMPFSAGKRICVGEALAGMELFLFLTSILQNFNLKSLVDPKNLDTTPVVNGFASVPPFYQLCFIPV

Consider `CC(C)=CCc1cc([C@@H]2CC(=O)c3ccc(O)c(CC=C(C)C)c3O2)cc(CC=C(C)C)c1O` [SPN, (‒)-Sophoranone], for which the 50% inhibitory concentration (IC50) on CYP2C9 was 966 ± 149 nM; at CYP2A6 (human liver microsomes 0.1 mg/mL, cocktail assay, coumarin probe, n = 3, read-out: IC50 Values, CYP2A6) it was > 50000 nM. Besides, the “residual enzyme activity, CYP2A6” value on CYP2A6 (at the highest tested concentration (50 μM)) is reported as “greater than 80%”. In series [1] (male, Sprague-Dawley, rat, plasma, po, Cmax of SPN, oral SPN 75 mg/kg co-administered with diclofenac 2 mg/kg, n = 6), the Cmax was 33.7 ng/mL and 73.2 nM. The “effect of co-administration on the pharmacokinetics of diclofenac and 4′-hydroxydiclofenac” value in series [1] (oral SPN 75 mg/kg 15 min before oral diclofenac 2 mg/kg) was “did not alter the pharmacokinetics of diclofenac and 4′-hydroxydiclofenac”. Also, the “Imax,u (unbound maximum concentration in plasma)” value in series [1] (oral SPN 75 mg/kg, Cmax corrected for plasma protein binding) worked out at 0.0420 ± 0.0184 nM. Moreover, the fraction unbound at 4 h, 10 µM in series [2] (10 μM) stood at 0.00621 ± 0.000405. This compound displayed an unbound share (fraction unbound) at 4 h, 50 µM in series [2] (50 μM) of 0.00724 ± 0.0017. The “shift in IC50 after pre-incubation (time-dependent inactivation of the nine CYPs)” value in series [3] is on record as “no obvious shift in IC50”.
